Where two headings read alike, the source gives them in different places.
Legend:
Format in all cases: binding
[1] = target: T1, HeLa cell extract proteins (Homo sapiens, UniProt Q9Y6M0)
T1 construct: endogenous in cells; host or cells: HeLa cell extract

[2] = target: T2, HeLa cell extract proteins (Homo sapiens, UniProt P13995)
T2 construct: endogenous in cells; host or cells: HeLa cell extract
T2 sequence (P13995 36-350): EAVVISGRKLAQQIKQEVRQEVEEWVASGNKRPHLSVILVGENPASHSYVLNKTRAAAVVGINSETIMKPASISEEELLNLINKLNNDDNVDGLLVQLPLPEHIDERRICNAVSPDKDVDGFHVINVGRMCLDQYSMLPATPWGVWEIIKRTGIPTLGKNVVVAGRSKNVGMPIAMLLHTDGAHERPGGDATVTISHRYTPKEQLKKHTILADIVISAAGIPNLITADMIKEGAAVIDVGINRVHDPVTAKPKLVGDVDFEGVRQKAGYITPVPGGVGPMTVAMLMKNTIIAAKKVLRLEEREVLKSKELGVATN

[3] = target: T3, HeLa cell extract proteins (Homo sapiens, UniProt P56381)
T3 construct: endogenous in cells; host or cells: HeLa cell extract
T3 sequence (P56381 1-51): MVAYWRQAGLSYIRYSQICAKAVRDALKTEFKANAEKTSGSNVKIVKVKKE

[4] = target: T4, HeLa cell extract proteins (Homo sapiens, UniProt O75340)
T4 construct: endogenous in cells; host or cells: HeLa cell extract
T4 sequence (O75340 whole entry): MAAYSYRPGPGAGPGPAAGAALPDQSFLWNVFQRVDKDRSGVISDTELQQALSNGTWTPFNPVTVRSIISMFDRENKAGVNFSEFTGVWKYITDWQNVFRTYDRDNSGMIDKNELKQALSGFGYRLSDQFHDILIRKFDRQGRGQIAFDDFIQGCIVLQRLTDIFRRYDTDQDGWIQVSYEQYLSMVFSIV

[5] = target: T5, HeLa cell extract proteins (Homo sapiens, UniProt Q13162)
T5 construct: endogenous in cells; host or cells: HeLa cell extract
T5 sequence (Q13162 38-271): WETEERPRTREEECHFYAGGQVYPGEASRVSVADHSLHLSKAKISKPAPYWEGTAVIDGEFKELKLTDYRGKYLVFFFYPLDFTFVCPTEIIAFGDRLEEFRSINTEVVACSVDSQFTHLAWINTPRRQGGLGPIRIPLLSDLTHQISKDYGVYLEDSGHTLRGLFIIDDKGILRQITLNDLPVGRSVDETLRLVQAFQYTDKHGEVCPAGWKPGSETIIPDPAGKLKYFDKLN

[6] = target: T6, HeLa cell extract proteins (Homo sapiens, UniProt P61769)
T6 construct: endogenous in cells; host or cells: HeLa cell extract
T6 sequence (P61769 21-119): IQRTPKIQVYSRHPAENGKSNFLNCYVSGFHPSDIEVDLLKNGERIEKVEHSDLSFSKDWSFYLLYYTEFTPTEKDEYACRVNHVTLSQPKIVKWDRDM

[7] = target: T7, HeLa cell extract proteins (Homo sapiens, UniProt Q99683)
T7 construct: endogenous in cells; host or cells: HeLa cell extract
T7 sequence (Q99683 1-1374): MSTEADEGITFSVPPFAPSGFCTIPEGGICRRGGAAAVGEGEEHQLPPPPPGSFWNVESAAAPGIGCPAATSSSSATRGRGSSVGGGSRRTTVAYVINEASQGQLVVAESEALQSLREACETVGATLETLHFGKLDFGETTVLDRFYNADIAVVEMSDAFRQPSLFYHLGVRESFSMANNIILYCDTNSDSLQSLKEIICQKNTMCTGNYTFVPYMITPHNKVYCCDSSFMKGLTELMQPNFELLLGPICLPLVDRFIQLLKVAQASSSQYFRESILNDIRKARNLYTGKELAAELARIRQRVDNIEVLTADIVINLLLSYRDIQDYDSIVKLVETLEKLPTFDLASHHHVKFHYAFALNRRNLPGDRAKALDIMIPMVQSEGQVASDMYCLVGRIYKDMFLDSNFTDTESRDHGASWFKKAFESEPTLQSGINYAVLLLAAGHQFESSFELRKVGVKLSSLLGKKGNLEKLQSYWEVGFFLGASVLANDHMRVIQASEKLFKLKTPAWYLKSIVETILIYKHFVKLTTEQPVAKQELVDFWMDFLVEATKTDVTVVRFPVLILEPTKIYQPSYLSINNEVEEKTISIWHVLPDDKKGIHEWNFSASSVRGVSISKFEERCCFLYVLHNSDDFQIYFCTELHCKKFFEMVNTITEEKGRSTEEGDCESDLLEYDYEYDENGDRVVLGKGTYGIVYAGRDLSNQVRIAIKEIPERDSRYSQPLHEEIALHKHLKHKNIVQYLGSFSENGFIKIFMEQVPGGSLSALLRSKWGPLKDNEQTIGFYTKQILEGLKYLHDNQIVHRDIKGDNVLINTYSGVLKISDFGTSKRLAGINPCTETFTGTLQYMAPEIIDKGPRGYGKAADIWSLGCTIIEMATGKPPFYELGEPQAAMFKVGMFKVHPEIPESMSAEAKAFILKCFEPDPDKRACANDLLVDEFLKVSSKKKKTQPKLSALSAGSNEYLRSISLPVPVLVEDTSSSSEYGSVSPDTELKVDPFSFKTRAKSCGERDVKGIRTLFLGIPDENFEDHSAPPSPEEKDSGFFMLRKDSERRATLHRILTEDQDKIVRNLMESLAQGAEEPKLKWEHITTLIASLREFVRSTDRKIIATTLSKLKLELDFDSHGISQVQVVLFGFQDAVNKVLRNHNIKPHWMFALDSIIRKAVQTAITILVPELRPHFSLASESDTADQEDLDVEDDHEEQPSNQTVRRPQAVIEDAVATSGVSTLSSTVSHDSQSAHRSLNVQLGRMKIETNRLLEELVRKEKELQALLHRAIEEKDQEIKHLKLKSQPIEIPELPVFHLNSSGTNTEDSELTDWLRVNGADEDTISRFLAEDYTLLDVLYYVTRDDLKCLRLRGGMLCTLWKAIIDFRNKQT

[8] = target: T8, HeLa cell extract proteins (Homo sapiens, UniProt Q9UH17)
T8 construct: endogenous in cells; host or cells: HeLa cell extract
T8 sequence (Q9UH17 whole entry): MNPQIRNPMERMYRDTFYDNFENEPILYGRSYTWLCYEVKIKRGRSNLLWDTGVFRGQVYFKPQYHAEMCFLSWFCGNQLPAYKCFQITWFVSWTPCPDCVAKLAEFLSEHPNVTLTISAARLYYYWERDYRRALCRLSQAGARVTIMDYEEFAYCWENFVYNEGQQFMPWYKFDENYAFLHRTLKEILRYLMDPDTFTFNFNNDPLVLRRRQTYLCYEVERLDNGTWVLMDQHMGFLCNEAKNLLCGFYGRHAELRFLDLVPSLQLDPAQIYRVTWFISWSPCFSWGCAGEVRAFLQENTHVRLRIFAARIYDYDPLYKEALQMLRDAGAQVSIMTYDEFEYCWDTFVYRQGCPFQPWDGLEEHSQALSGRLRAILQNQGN

[9] = HeLa, protein PDCD6 (PROGRAMMED CELL DEATH PROTEIN 6)
[10] = HeLa, protein PRDX4 (PEROXIREDOXIN-4)
[11] = HeLa, protein B2M (CDNA FLJ57067, HIGHLY SIMILAR TO BETA-2-MICROGLOBULIN)
[12] = HeLa, protein MAP3K5 (MITOGEN-ACTIVATED PROTEIN KINASE KINASE KINASE 5)

T1 sequence (Q9Y6M0 42-314): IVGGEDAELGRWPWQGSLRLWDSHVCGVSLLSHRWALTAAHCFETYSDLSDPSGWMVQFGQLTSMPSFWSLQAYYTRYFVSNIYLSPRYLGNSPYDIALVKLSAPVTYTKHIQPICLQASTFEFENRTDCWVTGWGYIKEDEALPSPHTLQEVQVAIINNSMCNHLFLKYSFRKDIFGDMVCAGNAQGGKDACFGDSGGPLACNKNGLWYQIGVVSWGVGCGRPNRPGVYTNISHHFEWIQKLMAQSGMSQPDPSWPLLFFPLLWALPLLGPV

CCCCCCOc1cccc(Cc2cnc(N)nc2N)c1 [compound 2]
fold changes relative to vehicle control ([1]; HeLa, protein PRSS21): 1.18 | fold changes relative to vehicle control ([2]; protein MTHFD2, HeLa): 0.95 | fold changes relative to vehicle control ([3]; captured protein ATP5E, HeLa): 0.96 | fold changes relative to vehicle control ([4]; HeLa, protein PDCD6): 0.92 | fold changes relative to vehicle control ([5]; HeLa, protein PRDX4): 0.93 | fold changes relative to vehicle control ([6]; protein B2M, HeLa): 1.16 | fold changes relative to vehicle control ([7]; HeLa, protein MAP3K5): 1.14 | fold changes relative to vehicle control ([8]; HeLa, protein APOBEC3B): 1.25

NCCOCCOCC(=O)Nc1nc2ncc(CNc3ccc(C(=O)NC(CCC(=O)O)C(=O)O)cc3)nc2c(=O)[nH]1 (centres unmarked) [compound 6]
fold changes relative to vehicle control ([1]; HeLa, protein PRSS21): 0.96 | fold changes relative to vehicle control ([2]; HeLa, captured protein MTHFD2): 1.06 | fold changes relative to vehicle control ([3]; HeLa, captured protein ATP5E): 1.39 | fold changes relative to vehicle control [4, 9]: 0.98 | fold changes relative to vehicle control [5, 10]: 0.92 | fold changes relative to vehicle control [6, 11]: 1.37 | fold changes relative to vehicle control [7, 12]: 1.12 | fold changes relative to vehicle control ([8]; HeLa, protein APOBEC3B): 1.02

CCCCCCOc1ccc(Cc2cnc(N)nc2N)cc1 [compound 1]
fold changes relative to vehicle control ([1]; HeLa, protein PRSS21): 1.11 | fold changes relative to vehicle control ([2]; protein MTHFD2, HeLa): 0.09 | fold changes relative to vehicle control ([3]; captured protein ATP5E, HeLa): 0.88 | fold changes relative to vehicle control ([4]; HeLa, protein PDCD6): 1.03 | fold changes relative to vehicle control ([5]; HeLa, protein PRDX4): 1.08 | fold changes relative to vehicle control ([6]; protein B2M, HeLa): 1.14 | fold changes relative to vehicle control ([7]; HeLa, protein MAP3K5): 1.03 | fold changes relative to vehicle control ([8]; HeLa, protein APOBEC3B): 0.92

Nc1nc2c(c(=O)[nH]1)N(C=O)C(CNc1ccc(C(=O)N[C@@H](CCC(=O)O)C(=O)O)cc1)CN2 (some centres unmarked) [LEU, leucovorin]
fold changes relative to vehicle control ([1]; HeLa, protein PRSS21): 1 | fold changes relative to vehicle control ([2]; HeLa, captured protein MTHFD2): 0.7 | fold changes relative to vehicle control ([3]; HeLa, captured protein ATP5E): 1.13 | fold changes relative to vehicle control [4, 9]: 1.14 | fold changes relative to vehicle control [5, 10]: 1.09 | fold changes relative to vehicle control [6, 11]: 1.24 | fold changes relative to vehicle control [7, 12]: 1.13 | fold changes relative to vehicle control ([8]; HeLa, protein APOBEC3B): 0.93

NCCCNc1ccc(C(=O)NC(CCC(=O)O)C(=O)O)cc1 (centres unmarked) [compound 7]
fold changes relative to vehicle control ([1]; HeLa, protein PRSS21): 0.97 | fold changes relative to vehicle control ([2]; HeLa, captured protein MTHFD2): 1.02 | fold changes relative to vehicle control ([3]; HeLa, captured protein ATP5E): 1.37 | fold changes relative to vehicle control [4, 9]: 1.05 | fold changes relative to vehicle control [5, 10]: 0.99 | fold changes relative to vehicle control [6, 11]: 1.31 | fold changes relative to vehicle control [7, 12]: 1.09 | fold changes relative to vehicle control ([8]; HeLa, protein APOBEC3B): 0.94

Nc1nc2[nH]cc(CCc3ccc(C(=O)N[C@@H](CCC(=O)O)C(=O)O)cc3)c2c(=O)[nH]1 [PTX, pemetrexed]
fold changes relative to vehicle control [1]: 0.89 | fold changes relative to vehicle control [2]: 1.05 | fold changes relative to vehicle control [3]: 1.34 | fold changes relative to vehicle control [4]: 1.06 | fold changes relative to vehicle control [5]: 0.96 | fold changes relative to vehicle control [6]: 1.51 | fold changes relative to vehicle control [7]: 1.18 | fold changes relative to vehicle control [8]: 0.89

Nc1nc2cccc(-c3ccccc3)c2n1Cc1ccc(Cl)c(Cl)c1 [compound 3]
fold changes relative to vehicle control ([1]; HeLa, protein PRSS21): 1.04 | fold changes relative to vehicle control ([2]; protein MTHFD2, HeLa): 1.03 | fold changes relative to vehicle control ([3]; captured protein ATP5E, HeLa): 0.92 | fold changes relative to vehicle control ([4]; HeLa, protein PDCD6): 1.07 | fold changes relative to vehicle control ([5]; HeLa, protein PRDX4): 0.99 | fold changes relative to vehicle control ([6]; protein B2M, HeLa): 1.07 | fold changes relative to vehicle control ([7]; HeLa, protein MAP3K5): 1.1 | fold changes relative to vehicle control ([8]; HeLa, protein APOBEC3B): 1.01
